The source of these data is patent US8008502B2, “Thiazoline acid derivatives” (University of Florida Research Foundation, Inc., priority 1998, dated 2011).

Test [1] deals with non-iron-overloaded, bile duct-cannulated rat. Kind of test: Iron excretion in the non-iron-overloaded, bile duct-cannulated rat. The following applies: 150 μmol/kg p.o., solution in 40% Cremophor-H2O, rats fasted for 24 hours. Type of test: in vivo. The procedure:
Preparation of Drugs. Drug solutions were prepared in 60% water, 40% Cremophor RH-40.
Initial testing of 1 was performed in the non-iron-overloaded, bile duct-cannulated rat [J. Med. Chem., Vol. 34, Bergeron et al, “Synthesis and Biological Evaluation of Hydroxamate-Based Iron Chelators,” pages 3182-3187 (1991)]. The drug was prepared as a solution in 40% Cremophor-H2O and administered at a dose of 150 μmol/kg p.o. The rats were fasted for 24 hours before dosing. The efficiency of iron excretion induced by 1 was 2.4±0.92%.

Test [2] deals with iron-overloaded primate model. The following applies: po, 150 umol/kg, 24 h.
Protocol: The drug was prepared as a solution in 40% Cremophor-H2O and administered at a dose of 1.50 μmol/kg p.o. The monkeys were fasted for 24 hours before dosing.
For a further test, the system named is animal models. The following applies: literature; cited from earlier work.

The structures appear in SMILES notation.

`O=C(O)[C@H]1CSC(c2ccc(O)cc2O)=N1` [Compound 1, 4,5-dihydro-2-(2,4-dihydroxyphenyl)-thiazole-4(S)-carboxylic acid]: the “efficiency of iron excretion” value in test [1] was 2.4±0.92%. Moreover, the “efficiency (iron excretion)” value in test [2] is 4.2±1.4%.
As for `O=C(N[C@H]1COC(=O)[C@@H](NC(=O)c2cccc(O)c2O)COC(=O)[C@@H](NC(=O)c2cccc(O)c2O)COC1=O)c1cccc(O)c1O` [enterobactin], in the test with animal models, the clearing iron entry was “only marginally effective”.
Consider `CC(=O)N(O)CCC[C@@H]1NC(=O)[C@H](CCCN(O)C(C)=O)NC1=O` [rhodotorulic acid], for which, in the test with animal models, the clearing iron result was “reasonably active”.
